Laboratory results published in US8323656B2, “Antigen determinant of rheumatoid arthritis-specific autoantibody and use thereof” (priority 2007, dated 2012).

Test system: RA-specific antibodies (4 anti-CCP2-positive sera)
Assay: Indirect (inhibition) ELISA: cross-reactivity of analytes with RA-specific antibodies, immobilized CCP2 as capture antigen
Format: binding, human
Set-up: Cross-reactivity of antibodies with the named analyte: concentration or dose not given beside the values
Settings: for Cross-reactivity (%) of RA-specific antibody, modified α-amino acid: alkylation + acetylation: acetylated amino acid methyl ester of the amino acid named; for Cross-reactivity (%) of RA-specific antibody, modified α-amino acid: alkylation + acetylation / Cross-reactivity (%) of RA-specific antibody, modified α-amino acid: acetylation / Cross-reactivity (%) of RA-specific antibody, modified α-amino acid: alkylation: 0 = less than 1%; for Cross-reactivity (%) of RA-specific antibody, modified α-amino acid: acetylation: acetylated derivative of the amino acid named; for Cross-reactivity (%) of RA-specific antibody, modified α-amino acid: alkylation: methyl esterified (Me) derivative of the amino acid named; for Cross-reactivity (%) of RA-specific antibody, α-amino acid: unmodified α-amino acid, 0 = cross-reactivity less than 1%; for Cross-reactivity of antibodies with the named analyte: the analyte itself is named
Text: A complete set of 21 amino acids and their derivatives were used as analytes to determine if any analyte inhibited the action of the detector antibody in binding to the capture antigen. Determination was made by observation at the single AA level through a series of moving windows of different derivatization. Following this procedure ensures that no antigenic elements of the epitope are missed as long as the possible AA derivatives are available. The analysis began in the fluid phase, wherein initially, the detector antibody was incubated with each of the analytes. After overnight incubation at 4° C., 100 μl of analyte preadsorbed detector antibody per well were added into 96-well microplate which immobilized CCP2 on the surface, and was incubated for 1 hour at room temperature with shaking. […] The reaction was stopped by adding 100 μl of 0.5 M H2SO4 per well and the results were estimated at A450 nm.
The concept of indirect ELISA was based upon an inhibition test between an unknown amount of analyte and a known amount of immobilized antigen for a limited number of detector antibody binding-sites. If the contents of detector antibody and immobilized antigen are kept constant, the distribution of detector antibody between immobilized antigen bound detector antibody and analyte bound detector antibody is dependent upon the amount of sample analyte. The mass of immobilized antigen bound detector antibody is inversely proportional to the amount of analyte bound detector antibody.
(§1) As described in FIG. 1, Amino Acid Profiles for the Antigenic Determinant, ELISA was carried out with sera from Euro-diagnostica (serum 1) and from three patients (serum 2, 3, and 4) with RA to CCP2 positive at various concentrations of different amino acids. […] The horizontal line at 100% represents the control percent binding of the CCP2 to the antibody.
as §1, with “2, Acetylamino” for “1, Amino”, “acetylamino” for “amino”
as §1, with “3, Alkylamino” for “1, Amino”, “alkylamino” for “amino”
as §1, with “4, Acetylamino” for “1, Amino”, “Acid Methyl Ester” for “Acid”, “acetylamino acid methyl esters.” for “amino acids.”

| SMILES | Cross-reactivity (%) of RA-specific antibody, modified α-amino acid: alkylation + acetylation | Cross-reactivity (%) of RA-specific antibody, modified α-amino acid: acetylation | Cross-reactivity (%) of RA-specific antibody, modified α-amino acid: alkylation | Cross-reactivity (%) of RA-specific antibody, α-amino acid | Cross-reactivity of antibodies with the named analyte | Inhibition of antibody binding to the immobilized CCP2 (FIG. 1 and 2, analyte at 50 mM, 4 sera, result in words) |
| --- | --- | --- | --- | --- | --- | --- |
| C[C@@H](O)[C@H](N)C(=O)O [Threonine] | 0% | 0% | ^Me0% | 0% |  |  |
| N[C@@H](CCC(=O)O)C(=O)O [Glutamic acid] | 0% | 0% | ^Me0% | 0% |  |  |
| NC(=O)C[C@H](N)C(=O)O [Asparagine] | 0% | 0% | ^Me0% | 0% |  |  |
| N=C(N)NCCC[C@H](N)C(=O)O [Arginine] | 13% | 6% | ^Me5% | 0% | zero |  |
| COC(=O)[C@@H](N)CS [Cys-Me] |  |  |  |  | 48% |  |
| COC(=O)C(N)CCSC (stereo not drawn) [Met-Me] |  |  |  |  | 0% |  |
| NCCCC[C@H](N)C(=O)O [Lysine] | 0% | 0% | ^Me0% | 0% |  |  |
| NCC(=O)O [Glycine] | 0% | 0% | ^Me0% | 0% |  |  |
| N[C@@H](Cc1c[nH]cn1)C(=O)O [Histidine] | 0% | 0% | ^Me0% | 0% |  |  |
| CCOC(=O)C(N)CCCNC(N)=O (stereo not drawn) [Cit-Ee] |  |  |  |  | 72% |  |
| N[C@@H](Cc1c[nH]c2ccccc12)C(=O)O [Tryptophan] | 0% | 0% | ^Me0% | 0% |  |  |
| N[C@@H](CO)C(=O)O [Serine] | 0% | 0% | ^Me0% | 0% | 0% |  |
| CC(=O)N[C@@H](CCCN=C(N)N)C(=O)O [acetyl-Arg] |  |  |  |  | 5% | limited inhibition |
| CC(C)[C@H](N)C(=O)O [Valanine] | 0% | 0% | ^Me0% | 0% |  |  |
| N[C@@H](Cc1ccc(O)cc1)C(=O)O [Tyrosine] | 0% | 0% | ^Me0% | 0% |  |  |
| CSCC[C@H](N)C(=O)O [Methionine] | 0% | 0% | ^Me0% | 0% | 0% |  |
| CC(=O)N[C@@H](CO)C(=O)O [acetyl-Ser] |  |  |  |  | 0% |  |
